Test results published in article PMC7255104, “Receptor Characterization and Functional Activity of Pyrokinins on the Hindgut in the Adult Mosquito, Aedes aegypti” (Frontiers in Physiology, 2020).
Where a SMILES comes first, the peptide text is derived from it. [ ]: non-standard residue; d: D form. pGlu = O=C1CC[C@@H](C(=O)O)N1

Experiments:
[1] = system: A. aegypti PK1-R; assay: Heterologous functional receptor assay (aequorin bioluminescence), PK1-R; format: cell-based, Aedes aegypti; details: CHO-K1 cells expressing PK1-R; luminescent response
Text: The complete open reading frame was amplified based on the partial ([Nene et al., 2007]) and complete sequences ([Choi et al., 2013]) reported earlier for the A. aegypti PK1-R (Genbank accession: EAT35008.1) and PK2-R (Genbank accession: KC155994.1). Forward 5′-[…]-3′ (PK1-R) or 5′-[…]-3′ (PK2-R) and reverse 5′-[…]-3′ (PK1-R) or 5′-[…]-3′ (PK2-R) primers were designed over the start and stop codons (underlined), respectively, and used to amplify the complete coding sequence using Q5 High-Fidelity DNA polymerase following manufacturer recommendations (New England Biolabs, Whitby, ON). […] The resulting products were cloned into pGEM-T Easy sequencing vector, and miniprep samples were sequenced to verify base accuracy. […]
Chinese hamster ovary cells (CHO-K1) described previously ([Paluzzi et al., 2012]; [Gondalia et al., 2016]; [Wahedi and Paluzzi, 2018]) were grown in Dulbecco’s modified eagles medium: nutrient F12 (DMEM:F12) media containing 10% heat-inactivated fetal bovine serum (FBS; Wisent, St. Bruno, QC, Canada), 200 μg/mL geneticin, and antimycotic-antibiotic mixture as described previously ([Wahedi and Paluzzi, 2018]). […] Various concentrations of synthesized PK peptides and other peptides (purity > 90%; Genscript, Piscataway, NJ, United States) were prepared in BSA media and loaded in quadruplicate into white 96-well luminescence plates (Greiner Bio-One, Germany). […]

[2] = target: T1, A. aegypti PK2-R (Aedes aegypti, UniProt V9P4J1); assay: Heterologous functional receptor assay (aequorin bioluminescence), PK2-R; format: cell-based; details: CHO-K1 cells expressing PK2-R
T1 sequence (V9P4J1 1-638): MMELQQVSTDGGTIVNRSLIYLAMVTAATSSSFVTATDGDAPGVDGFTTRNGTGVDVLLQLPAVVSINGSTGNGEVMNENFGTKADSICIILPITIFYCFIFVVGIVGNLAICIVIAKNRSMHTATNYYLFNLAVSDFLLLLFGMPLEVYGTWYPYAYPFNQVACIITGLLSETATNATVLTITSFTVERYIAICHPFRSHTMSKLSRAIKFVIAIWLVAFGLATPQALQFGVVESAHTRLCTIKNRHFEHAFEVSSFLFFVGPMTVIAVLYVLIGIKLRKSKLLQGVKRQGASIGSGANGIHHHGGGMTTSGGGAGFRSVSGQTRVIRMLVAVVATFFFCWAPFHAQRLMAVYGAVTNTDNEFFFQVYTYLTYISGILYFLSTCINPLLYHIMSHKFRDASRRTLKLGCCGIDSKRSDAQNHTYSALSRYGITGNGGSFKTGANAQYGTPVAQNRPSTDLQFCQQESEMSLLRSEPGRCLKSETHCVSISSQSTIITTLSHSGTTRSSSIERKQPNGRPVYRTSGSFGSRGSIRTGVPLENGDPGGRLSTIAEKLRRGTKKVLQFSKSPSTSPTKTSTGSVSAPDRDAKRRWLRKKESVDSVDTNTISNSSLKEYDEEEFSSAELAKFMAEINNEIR
Text: The complete open reading frame was amplified based on the partial ([Nene et al., 2007]) and complete sequences ([Choi et al., 2013]) reported earlier for the A. aegypti PK1-R (Genbank accession: EAT35008.1) and PK2-R (Genbank accession: KC155994.1). Forward 5′-[…]-3′ (PK1-R) or 5′-[…]-3′ (PK2-R) and reverse 5′-[…]-3′ (PK1-R) or 5′-[…]-3′ (PK2-R) primers were designed over the start and stop codons (underlined), respectively, and used to amplify the complete coding sequence using Q5 High-Fidelity DNA polymerase following manufacturer recommendations (New England Biolabs, Whitby, ON). […] The resulting products were cloned into pGEM-T Easy sequencing vector, and miniprep samples were sequenced to verify base accuracy. The receptor constructs were excised using standard restriction enzyme digestion and subcloned into the mammalian expression vector, pcDNA 3.1^+ (Life Technologies, Burlington, ON, Canada). Transfection quality plasmid DNA was purified from an overnight bacterial culture using the PureLink MidiPrep Kit (Invitrogen, Burlington, ON, Canada) following manufacturer guidelines.
Chinese hamster ovary cells (CHO-K1) described previously ([Paluzzi et al., 2012]; [Gondalia et al., 2016]; [Wahedi and Paluzzi, 2018]) were grown in Dulbecco’s modified eagles medium: nutrient F12 (DMEM:F12) media containing 10% heat-inactivated fetal bovine serum (FBS; Wisent, St. Bruno, QC, Canada), 200 μg/mL geneticin, and antimycotic-antibiotic mixture as described previously ([Wahedi and Paluzzi, 2018]). […] Various concentrations of synthesized PK peptides and other peptides (purity > 90%; Genscript, Piscataway, NJ, United States) were prepared in BSA media and loaded in quadruplicate into white 96-well luminescence plates (Greiner Bio-One, Germany).
Luminescence responses to A. aegypti CAPA-1 (GPTVGLFAFPRV-NH2), CAPA-2 (pQGLVPFPRV-NH2) and CAPA-PK1 (AGNSGANSGMWFGPRL-NH2) peptides, along with the R. prolixus PK2 orthologs, PK2a (NTVNFSPRL-NH2), and PK2b (SPPFAPRL-NH2) were examined. A list of peptides used in this study and sequence comparison to native A. aegypti pyrokinin peptides is found in Supplementary Table S1. Cells prepared for the functional assay were loaded into each well of the plate using an automated injector unit and luminescent response was measured with a Synergy 2 Multi-Mode Microplate Reader (BioTek, Winooski, VT, United States). Negative controls were carried out using BSA media alone whereas 50 μM ATP, which activates endogenously expressed purinoceptors ([Iredale and Hill, 1993]; [Michel et al., 1998]), was used as a positive control. Luminescence responses were normalized to ATP responses and analyzed in GraphPad Prism 7.02 (GraphPad Software, San Diego, CA, United States). EC50 values were determined using dose-response curves from multiple biological replicates.

[3] = system: anti-RhoprCAPA-2 primary antiserum (antigen EGGFISFPRV-NH2); assay: Competitive ELISA for antibody cross-reactivity; format: binding, rabbit; details: antiserum 1:1000; absorbance at 450 nm; mean ± SEM, n = 4; read-out: IC50, competitive ELISA against 1 nM biotinylated-DromeCAPA
Procedure: In brief, 96-well plates were coated with anti-RhoprCAPA-2 primary antiserum diluted to 1:1000 in carbonate buffer (15 mM Na2CO3-H2O and 35 mM NaHCO3 in water; pH 9.4) and incubated overnight at 4°C. Plate contents were discarded, blotted, and rinsed three times with wash buffer (350 mM NaCl, 2.7 mM KCl, 1.5 mM KH2PO4, 5.15 mM Na2HPO4-H2O, and 0.05% Tween-20 (v/v) in water). Wells were then incubated for 1.5 h on a rocker with block buffer [0.5% skim milk powder (w/v) and 0.5% BSA (w/v) in PBS]. The block solution was discarded, and standard solutions were added (100 μL/well). Standards consisted of AedaeCAPA-1 and AedaeCAPA-2 diluted in block buffer to achieve concentrations ranging from 250 pM to 250 nM, or AedaeCAPA-PK1 and RhoprPK2b from 4.8 nM to 75 uM. After a 1.5 h incubation on a rocker, 1 nM biotinylated-DromeCAPA diluted in block buffer ([MacMillan et al., 2018]) was added (100 μL/well) to compete with the unlabeled peptide standards for antibody binding. Following overnight incubation at 4°C, the wells were washed four times with wash buffer, and incubated at 4°C for 1.5 h with Avidin-HRP (1:2000; Bio-Rad, Mississauga, ON, Canada). […] Reactions were stopped with 100 μL/well 2N HCl and absorbance at 450 nm was measured using a Synergy 2 Multi-Mode Microplate Reader (BioTek, Winooski, VT, United States).

[4] = system: isolated recta of A. aegypti; assay: Rectal contraction assay (impedance converter); design: species or system Aedes aegypti; details: 1 μM, 2-min interval, mean of 6-18 preparations
Procedure: Hindgut contraction assays were conducted on isolated […] of female A. aegypti. […] The isolated tissue was secured with minutien pins within a Sylgard-lined petri-dish. Given its high sequence similarity to endogenous A. aegypti PK2 peptides (Supplementary Table S1), we used the R. prolixus PK2b peptide ([Paluzzi and O'Donnell, 2012]), henceforth referred to as RhoprPK2b, for motility bioassays. Commercially synthesized peptides (Genscript, Piscataway, NJ, United States), […] ([…]) and RhoprPK2[…]), were used to examine myomodulatory activity. […] To assess whether PK1 peptides plays a role in regulating rectal motility, contractions were monitored in saline to obtain baseline contraction rates and subsequently following […] or 5-HT treatments, using probes connected to an impedance converter (UFI model 2991, Morro Bay, CA, United States) connected to a Powerlab 4/30 and laptop computer running LabChart […].0 software (AD Instruments, Colorado Springs, CO, United States). […] Probes were positioned on either side of the rectum by observation with a dissecting microscope (Olympus SZ61), and contractile responses were recorded on LabChart […].0 software (AD Instruments, Colorado Springs, CO, United States). Contractions were monitored for two minutes prior to, and after the addition of either […] or 5-HT. […]

[5] = system: isolated ilea of female A. aegypti; assay: Ileal motility assay (video recordings); design: species or system Aedes aegypti; details: Figure 6, 1 μM, 5-HT added together with 1 μM RhoprPK2b
Procedure: Hindgut contraction assays were conducted on isolated […] of female A. aegypti. […] The isolated tissue was secured with minutien pins within a Sylgard-lined petri-dish. Given its high sequence similarity to endogenous A. aegypti PK2 peptides (Supplementary Table S1), we used the R. prolixus PK2b peptide ([Paluzzi and O'Donnell, 2012]), henceforth referred to as RhoprPK2b, for motility bioassays. Commercially synthesized peptides (Genscript, Piscataway, NJ, United States), […] ([…]) and RhoprPK2[…]), were used to examine myomodulatory activity. Serotonin (5-hydroxytryptamine, 5-HT; Sigma-Aldrich, Oakville, ON, Canada), previously shown to stimulate A. aegypti hindgut contractions ([Messer and Brown, 1995]), was used as a stimulatory control. Given the inhibitory properties of myoinhibitory peptides (having the consensus W(X6)W-NH2 carboxyl terminus) on insect hindgut motility ([Lange et al., 2012]), RhoprMIP-7 ([…]; Genscript, Piscataway, NJ, United States; [Paluzzi et al., 2015]) was used as an inhibitory control. […] Unlike the rectum, the mosquito ileum produces weaker contractions that we were unable to measure using an impedance converter as described above. […] The dissected gut was pinned in the midgut and rectum to allow the ileum to freely contract in saline and following treatments. Contractions were recorded for 2 min in saline that was used for baseline activity measurements, followed by three subsequent 2-min recordings, including: […] The RhoprPK2b was added along with the stimulatory or inhibitory compound (5-HT or RhoprMIP-7, respectively), to maintain its 1 μM concentration in the bath. […] To account for any potential changes in tissue contractile activity upon adding solutions to the bath, each of these variables were measured relative to baseline saline recordings of the same preparation as a ratio of change, where a value above or below one indicates an increase or a decrease, (respectively), in the rate, duration or length between each contraction in response to the treatment.

Structure (SMILES) | activation of PK1-R (in words) [1] | activation of PK2-R (in words) ([2]; luminescent response) | activation of PK2-R relative to the highly potent pyrokinins ([2]; very high concentrations) [%] | IC50 [3] [nM] | fold change in contraction rate of female recta relative to baseline in saline ([4]; female recta) [fold] | fold change in contraction rate of male recta relative to baseline in saline ([4]; male recta) [fold] | ileal contraction frequency relative to baseline ([5]; 2-min recordings, mean of 15 preparations) [fold] | duration of each ileal contraction relative to baseline ([5]; 15 preparations) | length of time between ileal contractions relative to baseline ([5]; 15 preparations)
CC(C)C[C@H](NC(=O)CNC(=O)[C@@H]1CCC(=O)N1)C(=O)N[C@H](C(=O)N1CCC[C@H]1C(=O)N[C@@H](Cc1ccccc1)C(=O)N1CCC[C@H]1C(=O)N[C@@H](CCCNC(=N)N)C(=O)N[C@H](C(N)=O)C(C)C)C(C)C [AedaeCAPA-2] ([pGlu]GLVPFPRV-NH2) | effective in activating PK1-R at high concentrations | only active on PK2-R at very high concentrations | ≤ 25 | 16.9 | – | – | – | – | –
NCCc1c[nH]c2ccc(O)cc12 [5-HT, 5-hydroxytryptamine] | – | – | – | – | 1.97 | 2.48 | 2.88 | effectively reduced | effectively reduced
